These results are taken from patent US8859584B2, “TRPV1 antagonists” (AbbVie Inc., priority 2011, dated 2014).

Test [1] concerns the target T1, human TRPV1 (Homo sapiens, UniProt Q8NER1).
T1 construct: expressed in transfected cells
Put plainly: Capsaicin Activation Assay (FLIPR intracellular Ca2+, recombinant HEK293 cells). Type of test: cell-based. As to conditions: recombinant HEK293 cells expressing hTRPV1; 50 nM capsaicin; read-out: human TRPV1 capsaicin IC50.

The target of test [2] is T1, human TRPV1. Put plainly: Acid Activation Assay (pH 5.0, FLIPR intracellular Ca2+, recombinant HEK293 cells). The following applies: percentage of maximal pH 5.0-induced response remaining; HEK293 hTRPV1; max concentration 37.5 μM. Type of test: cell-based. In outline: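 HEK293 cells stably expressing recombinant hTRPV1 were loaded with calcium dye for 90-120 min at 25° C and pre-treated with compound for 3 min before a pH 5.0 (DPBS/MES) challenge. Peak FLIPR fluorescence over baseline is given as percentage of the maximal pH 5.0-induced response.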

T1 sequence (Q8NER1 whole entry): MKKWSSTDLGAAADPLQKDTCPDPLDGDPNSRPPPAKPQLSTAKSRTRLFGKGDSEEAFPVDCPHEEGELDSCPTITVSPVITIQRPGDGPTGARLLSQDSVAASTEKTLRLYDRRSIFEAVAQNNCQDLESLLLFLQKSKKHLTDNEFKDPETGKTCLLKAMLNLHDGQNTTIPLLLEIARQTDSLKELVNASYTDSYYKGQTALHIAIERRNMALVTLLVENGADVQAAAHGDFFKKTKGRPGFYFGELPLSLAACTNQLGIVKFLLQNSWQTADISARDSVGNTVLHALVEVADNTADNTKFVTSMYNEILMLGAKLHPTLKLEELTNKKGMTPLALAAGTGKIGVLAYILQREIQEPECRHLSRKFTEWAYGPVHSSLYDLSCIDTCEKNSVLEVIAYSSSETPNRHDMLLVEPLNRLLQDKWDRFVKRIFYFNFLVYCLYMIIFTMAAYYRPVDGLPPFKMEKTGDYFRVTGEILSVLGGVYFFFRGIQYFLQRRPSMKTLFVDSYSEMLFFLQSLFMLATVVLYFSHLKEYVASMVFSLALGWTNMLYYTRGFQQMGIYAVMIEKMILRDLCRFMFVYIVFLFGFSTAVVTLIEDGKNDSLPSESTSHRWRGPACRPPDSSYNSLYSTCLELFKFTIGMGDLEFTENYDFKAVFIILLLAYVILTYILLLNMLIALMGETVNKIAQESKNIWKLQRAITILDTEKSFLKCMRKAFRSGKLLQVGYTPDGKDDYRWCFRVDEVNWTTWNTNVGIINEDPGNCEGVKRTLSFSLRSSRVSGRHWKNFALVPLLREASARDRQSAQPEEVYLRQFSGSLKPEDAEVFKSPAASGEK

Take `O=C(Nc1cccc2c1C[C@@H](O)C2)N[C@@H]1CC(CF)(CF)Oc2cc(C(F)(F)F)ccc21` [Example 74, 1-[(4R)-2,2-bis(fluoromethyl)-7-(trifluoromethyl)-3,4-dihydro-2H-chromen-4-yl]-3-[(2S)-2-hydroxy-2,3-dihydro-1H-inden-4-yl]urea]: the IC50 (commonly the point on the concentration scale where inhibition reaches its midpoint) on human TRPV1 [1] amounted to 14 nM. Also, the “human TRPV1 H+ (max % remain)” value on human TRPV1 [2] stood at 2%.
In the case of `O=C(Nc1ccc(F)c2c1C[C@H](O)C2)N[C@@H]1CCOc2c(OC(F)(F)F)cccc21` [Example 137, 1-[(2S)-7-fluoro-2-hydroxy-2,3-dihydro-1H-inden-4-yl]-3-[(4R)-8-(trifluoromethoxy)-3,4-dihydro-2H-chromen-4-yl]urea], on human TRPV1 [1], the IC50 was found to be 350 nM. Further, the “human TRPV1 H+ (max % remain)” value on human TRPV1 [2] is 4%.
Turning to `COc1ccc2c(c1)OCCC2NC(=O)Nc1cccc2c1CC(O)C2` (stereo not shown) [Example 107, 1-(2-hydroxy-2,3-dihydro-1H-inden-4-yl)-3-(7-methoxy-3,4-dihydro-2H-chromen-4-yl)urea], the IC50 at human TRPV1 [1] worked out at 2200 nM. The “human TRPV1 H+ (max % remain)” value at human TRPV1 [2] amounted to 55%.
As for `CC1(C)C[C@@H](NC(=O)Nc2ccc(F)c3c2C[C@H](O)C3)c2cccc(OC(F)(F)F)c2O1` [Example 154, 1-[(4R)-2,2-dimethyl-8-(trifluoromethoxy)-3,4-dihydro-2H-chromen-4-yl]-3-[(2S)-7-fluoro-2-hydroxy-2,3-dihydro-1H-inden-4-yl]urea], at human TRPV1 [1], the IC50 is 82 nM. For the same compound, on human TRPV1 [2], the “human TRPV1 H+ (max % remain)” value worked out at 3%.
As for `CCC1(CC)C[C@@H](NC(=O)Nc2cccc3c2C[C@H](O)C3)c2cccc(F)c2O1` [Example 48, 1-[(4R)-2,2-diethyl-8-fluoro-3,4-dihydro-2H-chromen-4-yl]-3-[(2R)-2-hydroxy-2,3-dihydro-1H-inden-4-yl]urea], at human TRPV1 [1], the half-maximal inhibitory concentration (IC50) amounted to 24 nM. The “human TRPV1 H+ (max % remain)” value at human TRPV1 [2] came out at 89%.
In the same order, the values of `CC1(C)C[C@@H](NC(=O)Nc2cccc3c2C[C@@H](O)C3)c2ccc(C(F)(F)F)cc2O1` [Example 77, 1-[(4R)-2,2-dimethyl-7-(trifluoromethyl)-3,4-dihydro-2H-chromen-4-yl]-3-[(2S)-2-hydroxy-2,3-dihydro-1H-inden-4-yl]urea] are 12 nM and 1%.
In the same order, the values of `O=C(Nc1cccc2c1C[C@H](O)C2)N[C@@H]1CCOc2ccccc21` [Example 47, 1-[(4R)-3,4-dihydro-2H-chromen-4-yl]-3-[(2R)-2-hydroxy-2,3-dihydro-1H-inden-4-yl]urea] are 4100 nM and 81%.
As to `O=C(Nc1ccc(F)c2c1C[C@H](O)C2)N[C@@H]1CCOc2cc(OC(F)(F)F)ccc21` [Example 150, 1-[(2S)-7-fluoro-2-hydroxy-2,3-dihydro-1H-inden-4-yl]-3-[(4R)-7-(trifluoromethoxy)-3,4-dihydro-2H-chromen-4-yl]urea], the IC50 at human TRPV1 [1] worked out at 1600 nM. Further, on human TRPV1 [2], the “human TRPV1 H+ (max % remain)” value is recorded as 3%.
In the case of `O=C(Nc1cccc2c1C[C@@H](O)C2)N[C@@H]1CC(CF)(CF)Oc2c(F)cc(F)cc21` [Example 79, 1-[(4R)-6,8-difluoro-2,2-bis(fluoromethyl)-3,4-dihydro-2H-chromen-4-yl]-3-[(2S)-2-hydroxy-2,3-dihydro-1H-inden-4-yl]urea], the half-inhibitory concentration (IC50) at human TRPV1 [1] was 710 nM. The “human TRPV1 H+ (max % remain)” value at human TRPV1 [2] is 15%.
With “1-[(2R)-7-fluoro-2-hydroxy-2,3-dihydro-1H-inden-4-yl]-3-[(4R)-8-(trifluoromethyl)-3,4-dihydro-2H-chromen-4-yl]urea [Example 173]”, the half-inhibitory concentration (IC50) at human TRPV1 [1] turned out to be 210 nM. The “human TRPV1 H+ (max % remain)” value at human TRPV1 [2] stood at 39%.
`O=C(Nc1cccc2c1C[C@H](O)C2)N[C@H]1CC2(CCC2)Oc2ccc(F)cc21` [Example 101, 1-[(4S)-6-fluoro-3,4-dihydrospiro[chromene-2,1′-cyclobutan]-4-yl]-3-[(2R)-2-hydroxy-2,3-dihydro-1H-inden-4-yl]urea]: the IC50 at human TRPV1 [1] was determined as 1200 nM. Besides, the “human TRPV1 H+ (max % remain)” value on human TRPV1 [2] is 90%.
Take `CC1(C(F)F)C[C@@H](NC(=O)Nc2cccc3c2C[C@H](O)C3)c2cc(Cl)ccc2O1` (stereo partly drawn) [Example 61, 1-[(4R)-6-chloro-2-(difluoromethyl)-2-methyl-3,4-dihydro-2H-chromen-4-yl]-3-[(2R)-2-hydroxy-2,3-dihydro-1H-inden-4-yl]urea]: the IC50 at human TRPV1 [1] was 20 nM. Also, the “human TRPV1 H+ (max % remain)” value at human TRPV1 [2] was found to be 69%.
In the case of `O=C(Nc1ccc(F)c2c1CC(O)C2)NC1CCc2cc(C(F)(F)F)ccc21` (stereo not shown) [Example 155, 1-(7-fluoro-2-hydroxy-2,3-dihydro-1H-inden-4-yl)-3-[5-(trifluoromethyl)-2,3-dihydro-1H-inden-1-yl]urea], the 50% inhibitory concentration (IC50) at human TRPV1 [1] was 42 nM. The “human TRPV1 H+ (max % remain)” value on human TRPV1 [2] was 19%.
For the compound `CC1(C)C[C@@H](NC(=O)Nc2cccc3c2C[C@@H](O)C3)c2cc(F)ccc2O1` [Example 83, 1-[(4R)-6-fluoro-2,2-dimethyl-3,4-dihydro-2H-chromen-4-yl]-3-[(2S)-2-hydroxy-2,3-dihydro-1H-inden-4-yl]urea], the 50% inhibitory concentration (IC50) on human TRPV1 [1] was 790 nM. Besides, the “human TRPV1 H+ (max % remain)” value on human TRPV1 [2] was 27%.
On to `CC1(C)C[C@H](NC(=O)Nc2cccc3c2C[C@H](O)C3)c2cc(F)ccc2O1` [Example 104, 1-[(4S)-6-fluoro-2,2-dimethyl-3,4-dihydro-2H-chromen-4-yl]-3-[(2R)-2-hydroxy-2,3-dihydro-1H-inden-4-yl]urea], for which the IC50 on human TRPV1 [1] was over 38000 nM. Further, on human TRPV1 [2], the “human TRPV1 H+ (max % remain)” value is 100%.
For `O=C(Nc1cccc2c1C[C@H](O)C2)N[C@@H]1CC(CF)(CF)Oc2c(F)cc(F)cc21` [Example 1, 1-[(4R)-6,8-difluoro-2,2-bis(fluoromethyl)-3,4-dihydro-2H-chromen-4-yl]-3-[(2R)-2-hydroxy-2,3-dihydro-1H-inden-4-yl]urea], the concentration for half-maximal inhibition (IC50) on human TRPV1 [1] amounted to 300 nM. For the same compound, the “human TRPV1 H+ (max % remain)” value at human TRPV1 [2] worked out at 61%.
With `O=C(Nc1ccc(F)c2c1C[C@@H](O)C2)N[C@@H]1CC2(CCC2)Oc2ccc(F)cc21` [Example 163, 1-[(4R)-6-fluoro-3,4-dihydrospiro[chromene-2,1′-cyclobutan]-4-yl]-3-[(2R)-7-fluoro-2-hydroxy-2,3-dihydro-1H-inden-4-yl]urea], the 50% inhibitory concentration (IC50) at human TRPV1 [1] came out at 690 nM. In addition, at human TRPV1 [2], the “human TRPV1 H+ (max % remain)” value was 38%.
Take `CCCC1(CCC)C[C@@H](NC(=O)Nc2cccc3c2C[C@H](O)C3)c2cccc(F)c2O1` [Example 59, 1-[(4R)-8-fluoro-2,2-dipropyl-3,4-dihydro-2H-chromen-4-yl]-3-[(2R)-2-hydroxy-2,3-dihydro-1H-inden-4-yl]urea]: the IC50 at human TRPV1 [1] came out at 23 nM. The “human TRPV1 H+ (max % remain)” value on human TRPV1 [2] was determined as 99%.
On to `CC1(C)C[C@@H](NC(=O)Nc2ccc(F)c3c2C[C@@H](O)C3)c2ccc(F)c(Cl)c2O1` [Example 166, 1-[(4R)-8-chloro-7-fluoro-2,2-dimethyl-3,4-dihydro-2H-chromen-4-yl]-3-[(2R)-7-fluoro-2-hydroxy-2,3-dihydro-1H-inden-4-yl]urea], for which the concentration for half-maximal inhibition (IC50) at human TRPV1 [1] is 65 nM. On human TRPV1 [2], the “human TRPV1 H+ (max % remain)” value was 43%.
Take `O=C(NCC1CCc2cc(C(F)(F)F)ccc2O1)Nc1cccc2c1C[C@H](O)C2` (stereo partly drawn) [Example 26, 1-[(2R)-2-hydroxy-2,3-dihydro-1H-inden-4-yl]-3-{[6-(trifluoromethyl)-3,4-dihydro-2H-chromen-2-yl]methyl}urea]: the IC50 at human TRPV1 [1] is 770 nM. Also, the “human TRPV1 H+ (max % remain)” value on human TRPV1 [2] is recorded as 66%.
Consider `CC1(C)C[C@@H](NC(=O)Nc2cccc3c2C[C@H](O)C3)c2cccc(OC(F)(F)F)c2O1` [Example 19, 1-[(4R)-2,2-dimethyl-8-(trifluoromethoxy)-3,4-dihydro-2H-chromen-4-yl]-3-[(2R)-2-hydroxy-2,3-dihydro-1H-inden-4-yl]urea], for which the IC50 on human TRPV1 [1] was determined as 14 nM. Further, at human TRPV1 [2], the “human TRPV1 H+ (max % remain)” value worked out at 71%.
For `CC1(C)C[C@@H](NC(=O)Nc2cccc3c2C[C@H](O)C3)c2ccccc21` [Example 63, 1-[(1R)-3,3-dimethyl-2,3-dihydro-1H-inden-1-yl]-3-[(2R)-2-hydroxy-2,3-dihydro-1H-inden-4-yl]urea], on human TRPV1 [1], the IC50 is 140 nM. In addition, the “human TRPV1 H+ (max % remain)” value at human TRPV1 [2] is 86%.
In the case of `CC1(C)C[C@@H](NC(=O)Nc2ccc(F)c3c2C[C@@H](O)C3)c2cccc(C(F)(F)F)c2O1` [Example 156, 1-[(4R)-2,2-dimethyl-8-(trifluoromethyl)-3,4-dihydro-2H-chromen-4-yl]-3-[(2R)-7-fluoro-2-hydroxy-2,3-dihydro-1H-inden-4-yl]urea], the IC50 on human TRPV1 [1] is 61 nM. At human TRPV1 [2], the “human TRPV1 H+ (max % remain)” value is listed as 40%.
On to `CC1(C)C[C@@H](NC(=O)Nc2ccc(F)c3c2C[C@H](O)C3)c2cc(F)ccc2O1` [Example 146, 1-[(4R)-6-fluoro-2,2-dimethyl-3,4-dihydro-2H-chromen-4-yl]-3-[(2S)-7-fluoro-2-hydroxy-2,3-dihydro-1H-inden-4-yl]urea], for which, on human TRPV1 [1], the IC50 stood at 2800 nM. Besides, at human TRPV1 [2], the “human TRPV1 H+ (max % remain)” value is 7%.
Take `O=C(Nc1ccc(F)c2c1C[C@@H](O)C2)N[C@@H]1CC(CF)(CF)Oc2c(F)cc(F)cc21` [Example 162, 1-[(4R)-6,8-difluoro-2,2-bis(fluoromethyl)-3,4-dihydro-2H-chromen-4-yl]-3-[(2R)-7-fluoro-2-hydroxy-2,3-dihydro-1H-inden-4-yl]urea]: on human TRPV1 [1], the IC50 is 3400 nM. The “human TRPV1 H+ (max % remain)” value at human TRPV1 [2] is 50%.
Regarding `O=C(Nc1cccc2c1C[C@H](O)C2)N[C@@H]1CC(CF)(CF)Oc2c(F)cccc21` [Example 70, 1-[(4R)-8-fluoro-2,2-bis(fluoromethyl)-3,4-dihydro-2H-chromen-4-yl]-3-[(2R)-2-hydroxy-2,3-dihydro-1H-inden-4-yl]urea], the IC50 on human TRPV1 [1] was 220 nM. The “human TRPV1 H+ (max % remain)” value at human TRPV1 [2] is reported as 99%.
